target: human fatty acid synthase FASN (Homo sapiens (Human), UniProt P49327); assay: Biochemical activity testing of human fatty acid synthase FASN (NADPH fluorescence intensity enzyme assay); settings: human recombinant full-length fatty acid synthase
Excerpt: Biochemical activity testing of human fatty acid synthase FASN
Fatty acid synthase FASN is a multifunctional enzyme with seven catalytic activities thereby synthesising long chain fatty acids especially palmitoyl-CoA in the presence of co-factor NADPH starting from the substrates acetyl-CoA and malonyl-CoA. The reductive synthesis is realized by the oxidation of NADPH to NADP. Since NADPH has a high fluorescence intensity quantum yield compared to NADP with excitation at 340 nm and emission at 460 nm, the reaction can be monitored via the decrease in fluorescence intensity. The biochemical FASN activity testing was performed as 384 well two-time-point kinetic fluorescence intensity assay format in Greiner low volume medium binding 384-well black microtiter plates in a total assay volume of 8 μl and was used for high throughput screen. In each well 3 μl 40 nM human recombinant full-length fatty acid synthase (produced in-house in SF9 cells) were dispensed in the following assay buffer: 50 mM potassium phosphate buffer pH 7.0, 0.005% (w/v) BSA, 2 mM Glutathione, 0.02% Tween-20. Then 2 μl of 200 μM NADPH in assay buffer were added, followed by the addition of the test compounds in 10 dilution concentrations starting with 30 μM (final concentration) to get a final DMSO content of 1% (v/v). The mixture was incubated for at least 15 min at room temperature. After the pre-incubation the enzymatic reaction was started by the addition of 2 μl substrate solution (80 μM acetyl-CoA, 240 μM malonyl-CoA). A first fluorescence intensity measurement (time point one) was performed with an Envision multimode reader (Perkin Elmer LAS Germany GmbH) at excitation wavelength 340 nm (lamp mode) and emission wavelength 460 nm. The reaction was incubated for 30 minutes at room temperature. After this the fluorescence intensity was measured again in the Envision using the same parameters as described above (second time point measurement). The data were analysed by subtracting the first time point measurement value from the second time point measurement value (after the enzymatic reaction). The differences of the emission signals were determined. These reflect directly the conversion rate of NADPH. The full value used was the inhibitor-free reaction. A pharmacological zero value was used like GSK837149A (Sigma-Aldrich) in a final concentration of 5-10 μM. The inhibitory values (IC50) were determined using either the program Symyx Assay Explorer® or Condosseo® from GeneData.

human fatty acid synthase FASN, sequence (P49327 whole entry): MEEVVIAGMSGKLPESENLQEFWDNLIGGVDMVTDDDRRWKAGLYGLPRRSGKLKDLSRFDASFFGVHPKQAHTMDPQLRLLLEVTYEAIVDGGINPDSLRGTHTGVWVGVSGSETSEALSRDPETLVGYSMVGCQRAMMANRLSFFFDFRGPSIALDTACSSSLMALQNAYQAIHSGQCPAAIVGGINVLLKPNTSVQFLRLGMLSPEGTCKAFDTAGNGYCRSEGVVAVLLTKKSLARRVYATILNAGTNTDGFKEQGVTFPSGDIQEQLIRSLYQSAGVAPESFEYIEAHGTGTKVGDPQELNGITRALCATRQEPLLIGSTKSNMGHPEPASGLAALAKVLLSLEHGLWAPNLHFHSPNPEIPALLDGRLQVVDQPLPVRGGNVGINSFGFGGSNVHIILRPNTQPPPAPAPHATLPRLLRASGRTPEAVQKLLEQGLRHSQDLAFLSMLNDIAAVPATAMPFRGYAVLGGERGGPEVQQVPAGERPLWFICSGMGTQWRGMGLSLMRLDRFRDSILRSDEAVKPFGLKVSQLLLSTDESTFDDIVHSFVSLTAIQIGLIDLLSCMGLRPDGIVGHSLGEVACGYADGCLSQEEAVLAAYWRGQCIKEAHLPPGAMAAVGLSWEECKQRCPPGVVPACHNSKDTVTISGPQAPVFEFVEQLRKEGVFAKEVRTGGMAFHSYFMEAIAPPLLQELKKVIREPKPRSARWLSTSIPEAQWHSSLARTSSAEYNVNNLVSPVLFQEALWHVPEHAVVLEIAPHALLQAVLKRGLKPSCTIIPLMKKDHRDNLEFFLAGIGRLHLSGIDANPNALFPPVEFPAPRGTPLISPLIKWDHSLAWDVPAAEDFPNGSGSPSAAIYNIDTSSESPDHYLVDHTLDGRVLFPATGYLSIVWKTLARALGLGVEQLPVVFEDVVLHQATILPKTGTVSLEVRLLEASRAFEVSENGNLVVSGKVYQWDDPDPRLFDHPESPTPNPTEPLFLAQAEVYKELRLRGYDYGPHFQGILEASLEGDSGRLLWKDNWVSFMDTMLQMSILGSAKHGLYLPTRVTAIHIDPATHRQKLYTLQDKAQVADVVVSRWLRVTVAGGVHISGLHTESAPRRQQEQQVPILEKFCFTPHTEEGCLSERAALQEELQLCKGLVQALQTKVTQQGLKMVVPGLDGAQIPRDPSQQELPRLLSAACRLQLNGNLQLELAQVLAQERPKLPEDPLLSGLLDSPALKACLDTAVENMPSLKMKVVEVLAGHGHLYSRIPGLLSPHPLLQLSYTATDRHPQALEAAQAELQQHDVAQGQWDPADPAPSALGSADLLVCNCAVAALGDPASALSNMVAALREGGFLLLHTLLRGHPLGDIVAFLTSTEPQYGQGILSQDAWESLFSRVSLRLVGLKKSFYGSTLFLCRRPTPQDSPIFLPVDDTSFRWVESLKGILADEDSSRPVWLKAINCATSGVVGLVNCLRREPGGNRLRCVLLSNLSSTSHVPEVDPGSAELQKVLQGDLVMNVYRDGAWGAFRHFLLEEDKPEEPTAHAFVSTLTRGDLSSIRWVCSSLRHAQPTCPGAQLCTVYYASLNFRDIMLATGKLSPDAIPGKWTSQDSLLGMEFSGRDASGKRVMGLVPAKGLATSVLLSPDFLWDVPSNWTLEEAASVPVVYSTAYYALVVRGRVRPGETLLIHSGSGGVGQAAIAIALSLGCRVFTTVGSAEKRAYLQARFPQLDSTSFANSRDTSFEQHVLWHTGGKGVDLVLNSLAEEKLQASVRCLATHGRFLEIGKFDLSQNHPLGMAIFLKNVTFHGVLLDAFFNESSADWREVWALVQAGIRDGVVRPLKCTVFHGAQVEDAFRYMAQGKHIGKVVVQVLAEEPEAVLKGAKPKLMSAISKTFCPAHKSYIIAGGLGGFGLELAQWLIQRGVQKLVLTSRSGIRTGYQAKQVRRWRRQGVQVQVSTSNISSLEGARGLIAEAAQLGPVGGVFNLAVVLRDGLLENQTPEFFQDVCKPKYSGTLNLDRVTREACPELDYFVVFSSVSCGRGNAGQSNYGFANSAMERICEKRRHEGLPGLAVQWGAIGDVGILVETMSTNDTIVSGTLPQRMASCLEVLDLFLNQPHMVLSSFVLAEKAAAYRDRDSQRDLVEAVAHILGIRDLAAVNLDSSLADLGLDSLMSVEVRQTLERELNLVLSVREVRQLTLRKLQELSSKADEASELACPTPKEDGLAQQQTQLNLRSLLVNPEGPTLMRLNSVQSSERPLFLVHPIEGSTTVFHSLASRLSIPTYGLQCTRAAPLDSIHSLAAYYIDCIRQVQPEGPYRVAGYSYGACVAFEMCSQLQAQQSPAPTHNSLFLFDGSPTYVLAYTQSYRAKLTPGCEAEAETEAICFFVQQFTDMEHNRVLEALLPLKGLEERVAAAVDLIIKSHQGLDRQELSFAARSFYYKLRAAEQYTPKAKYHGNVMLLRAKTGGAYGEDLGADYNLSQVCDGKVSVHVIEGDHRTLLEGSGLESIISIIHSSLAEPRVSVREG

| SMILES | IC50 [µM] |
| --- | --- |
| CCC(=O)N[C@H]1CC[C@@H](N(C)C(=O)c2ccc(-c3ccc(F)c(Cl)c3)cc2)C1 [Compound A63, 3′-chloro-4′-fluoro-biphenyl-4-carboxylic acid methyl-((1R,3S)-3-propionylamino-cyclopentyl)-amide] | < 0.3 |
| CCC(=O)N[C@H]1CC[C@@H](N(C)C(=O)c2ccc(-c3cc(C)c4[nH]ncc4c3)cn2)C1 [Compound A104, 5-(7-methyl-1H-indazol-5-yl)-pyridine-2-carboxylic acid methyl-((1R,3S)-3-propionylamino-cyclopentyl)-amide] | < 0.3 |
| CCC(=O)N[C@H]1CC[C@@H](N(C)C(=O)c2ncc(-c3ccc4[nH]ccc4c3)cn2)C1 [Compound A131, 5-(1H-indol-5-yl)-pyrimidine-2-carboxylic acid methyl-((1R,3S)-3-propionylamino-cyclopentyl)-amide] | < 0.3 |
| CCC(=O)N[C@H]1CC[C@@H](N(C)C(=O)c2ccc(-c3ccc4[nH]ccc4c3C)nn2)C1 [Compound A150, 6-(4-methyl-1H-indol-5-yl)-pyridazine-3-carboxylic acid methyl-((1R,3S)-3-propionylamino-cyclopentyl)-amide] | < 0.3 |
| CN(C(=O)c1ccc(-c2nc3ccc(Cl)cc3o2)nc1)[C@@H]1CC[C@H](NC(=O)[C@@H]2CCCO2)C1 [Compound A154, 6-(6-chloro-benzoxazol-2-yl)-N-methyl-N-{(1R,3S)-3-[((S)-tetrahydro-furan-2-carbonyl)-amino]-cyclopentyl}-nicotinamide] | < 0.3 |
| CCC(=O)N[C@H]1CC[C@@H](N(C)C(=O)c2ccc(-c3ccc4[nH]nc(C)c4c3)cc2)C1 [Compound A100, N-methyl-4-(3-methyl-1H-indazol-5-yl)-N-((1R,3S)-3-propionylamino-cyclopentyl)-benzamide] | < 0.3 |
| CC(=O)N[C@H](C(=O)N[C@H]1CC[C@@H](N(C)C(=O)c2ccc(-c3nc4ccccc4o3)cc2)C1)C(C)C [Compound A43, N-[(1R,3S)-3-((S)-2-acetylamino-3-methyl-butyrylamino)-cyclopentyl]-4-benzoxazol-2-yl-N-methyl-benzamide] | 0.3 to 3 |
| CCC(=O)N[C@H]1CC[C@@H](N(C)C(=O)c2ccc(-c3nc4ccccc4o3)cn2)C1 [Compound A16, 5-benzoxazol-2-yl-pyridine-2-carboxylic acid methyl-((1R,3S)-3-propionylamino-cyclopentyl)-amide] | < 0.3 |
| CC(C)CCC(=O)N[C@H]1CC[C@@H](N(C)C(=O)c2ccc(-c3nc4ccccc4o3)cc2)C1 [Compound A19, 4-benzoxazol-2-yl-N-methyl-N-[(1R,3S)-3-(4-methyl-pentanoylamino)-cyclopentyl]-benzamide] | < 0.3 |
| CN(C(=O)c1ccc(-c2nc3ccc(Cl)cc3o2)cc1)[C@@H]1CC[C@H](NC(=O)[C@@H]2CCCO2)C1 [Compound A138, (S)-tetrahydro-furan-2-carboxylic acid ((1S,3R)-3-{[4-(6-chloro-benzooxazol-2-yl)-benzoyl]-methyl-amino}-cyclopentyl)-amide] | < 0.3 |
| CCC(=O)N[C@H]1CC[C@@H](N(C)C(=O)c2ccc(-c3cc(F)c(C#N)c(F)c3)cc2)C1 [Compound A61, 4′-cyano-3′,5′-difluoro-biphenyl-4-carboxylic acid methyl-((1R,3S)-3-propionylamino-cyclopentyl)-amide] | 3 to 50 |
| CCC(=O)N[C@H]1CC[C@@H](N(C)C(=O)c2ccc(-c3nc4ccccc4s3)cc2)C1 [Compound A6, 4-benzothiazol-2-yl-N-methyl-N-((1R,3S)-3-propionylamino-cyclopentyl)-benzamide] | < 0.3 |
| CCC(=O)N[C@H]1CC[C@@H](N(C)C(=O)c2ccc(-c3cc(F)c4[nH]ccc4c3)cc2)C1 [Compound A121, 4-(7-fluoro-1H-indol-5-yl)-N-methyl-N-((1R,3S)-3-propionylamino-cyclopentyl)-benzamide] | < 0.3 |
| CCC(=O)N[C@H]1CC[C@@H](N(C)C(=O)c2ccc(-c3ccc4cn[nH]c4c3)cc2)C1 [Compound A46, 4-(1H-indazol-6-yl)-N-methyl-N-((1R,3S)-3-propionylamino-cyclopentyl)-benzamide] | < 0.3 |
| CCC(=O)N[C@H]1CC[C@@H](N(C)C(=O)c2ccc(-c3ccc4[nH]ncc4c3C)cc2)C1 [Compound A126, N-methyl-4-(4-methyl-1H-indazol-5-yl)-N-((1R,3S)-3-propionylamino-cyclopentyl)-benzamide] | < 0.3 |
| CCC(=O)N[C@H]1CC[C@@H](N(C)C(=O)c2ccc(-c3ccc4ncsc4c3)cc2)C1 [Compound A59, 4-benzothiazol-6-yl-N-methyl-N-((1R,3S)-3-propionylamino-cyclopentyl)-benzamide] | < 0.3 |
| CCC(=O)N[C@H]1CC[C@@H](N(C)C(=O)c2ccc(-c3ccc(C)cc3)cc2)C1 [Compound A73, 4′-methyl-biphenyl-4-carboxylic acid methyl-((1R,3S)-3-propionylamino-cyclopentyl)-amide] | < 0.3 |
| CCC(=O)N[C@H]1CC[C@@H](N(C)C(=O)c2ccc(-c3ccc4[nH]ccc4c3F)c(F)c2)C1 [Compound A151, 3-fluoro-4-(4-fluoro-1H-indol-5-yl)-N-methyl-N-((1R,3S)-3-propionylamino-cyclopentyl)-benzamide] | < 0.3 |
| CCCCC(=O)N[C@H]1CC[C@@H](N(C)C(=O)c2ccc(-c3nc4ccccc4o3)cc2)C1 [Compound A24, 4-benzoxazol-2-yl-N-methyl-N-((1R,3S)-3-pentanoylamino-cyclopentyl)-benzamide] | < 0.3 |
| CCC(=O)N[C@H]1CC[C@@H](N(C)C(=O)c2ccc(-c3ccc(OC)c(OC)c3)cc2)C1 [Compound A56, 3′,4′-dimethoxy-biphenyl-4-carboxylic acid methyl-((1R,3S)-3-propionylamino-cyclopentyl)-amide] | < 0.3 |
| CCC(=O)N[C@H]1CC[C@@H](N(C)C(=O)c2ccc(-c3ccc(OC)cc3)cc2)C1 [Compound A82, 4′-methoxy-biphenyl-4-carboxylic acid methyl-((1R,3S)-3-propionylamino-cyclopentyl)-amide] | < 0.3 |
| CC[C@H](C)CC(=O)N[C@H]1CC[C@@H](N(C)C(=O)c2ccc(-c3nc4ccccc4o3)cc2)C1 [Compound A30, 4-benzoxazol-2-yl-N-methyl-N-[(1R,3S)-3-((S)-3-methyl-pentanoylamino)-cyclopentyl]-benzamide] | < 0.3 |
| CCC(=O)N[C@H]1CC[C@@H](N(C)C(=O)c2ccc(-c3nc4ccccc4o3)cc2)C1 [Compound A1, 4-benzoxazol-2-yl-N-methyl-N-((1R,3S)-3-propionylamino-cyclopentyl)-benzamide] | < 0.3 |
| CCC(=O)N[C@H]1CC[C@@H](N(C)C(=O)c2ccc(-c3ccc4[nH]ccc4c3F)nn2)C1 [Compound A137, 6-(4-fluoro-1H-indol-5-yl)-pyridazine-3-carboxylic acid methyl-((1R,3S)-3-propionylamino-cyclopentyl)-amide] | < 0.3 |
| CCC(=O)N[C@H]1CC[C@@H](N(C)C(=O)c2ccc(-c3ccc(F)cc3F)cc2)C1 [Compound A83, 2′,4′-difluoro-biphenyl-4-carboxylic acid methyl-((1R,3S)-3-propionylamino-cyclopentyl)-amide] | < 0.3 |
| CN(C)CC(=O)N[C@H]1CC[C@@H](N(C)C(=O)c2ccc(-c3nc4ccccc4o3)cc2)C1 [Compound A36, 4-benzoxazol-2-yl-N-[(1R,3S)-3-(2-dimethylamino-acetylamino)-cyclopentyl]-N-methyl-benzamide] | 0.3 to 3 |
| CN(C(=O)c1ccc(-c2nc3ccccc3o2)cc1)[C@@H]1CC[C@@H](NC(=O)Cc2ccccc2)C1 [Compound A167, 4-benzoxazol-2-yl-N-methyl-N-((1R,3R)-3-phenylacetylamino-cyclopentyl)-benzamide] | 3 to 50 |
| CCC(=O)N[C@H]1CC[C@@H](N(C)C(=O)c2ccc(-c3ccc4[nH]nc(C)c4c3)cn2)C1 [Compound A105, 5-(3-methyl-1H-indazol-5-yl)-pyridine-2-carboxylic acid methyl-((1R,3S)-3-propionylamino-cyclopentyl)-amide] | < 0.3 |
| CCC(=O)N[C@H]1CC[C@@H](N(C)C(=O)c2ccc(-c3ccc4c(c3)CC(=O)N4)cc2)C1 [Compound A94, N-methyl-4-(2-oxo-2,3-dihydro-1H-indol-5-yl)-N-((1R,3S)-3-propionylamino-cyclopentyl)-benzamide] | < 0.3 |
| CC[C@@H](C)CC(=O)N[C@H]1CC[C@@H](N(C)C(=O)c2ccc(-c3nc4ccccc4o3)cc2)C1 [Compound A31, 4-benzoxazol-2-yl-N-methyl-N-[(1R,3S)-3-((R)-3-methyl-pentanoylamino)-cyclopentyl]-benzamide] | < 0.3 |

From US9670142B2, “1,3-diaminocyclopentane carboxamide derivatives” (Merck Patent GmbH, priority 2013, dated 2017)
